The text below walks through data of patent US20250107544A1, “4-(3-OXO-2-(PENT-2-ENYL)CYCLOPENTYL) BUTANOIC ACID MIXTURES AND USES THEREOF” (Valent BioSciences LLC., priority 2023, published 2025).

Structures are written as SMILES.

Test [1] has as its system unripened apples, Pink Lady variety. Description: Apple coloration in Pink Lady variety (Example 1), percent red pixel area after foliar spray. It counts as in vivo. The following applies: for Average % Red Pixel Area: 34 hours post spray; for % change from control: vs 0.05% Regulaid control. From the text:
10 sets of unripened apples, Pink Lady variety, harvested three weeks before the normal harvest date, were each foliar sprayed with either 1) 0.05% Regulaid® as a control, 2) 30 ppm OPC4, 3) 100 ppm OPC4, 4) 300 ppm OPC4, 5) 1,000 ppm OPC4, 6) 50 ppm ACC, 7) 50 ppm jasmonic acid, 8) a mixture of 30 ppm OPC4 and 50 ppm ACC, 9) a mixture of 100 ppm OPC4 and 50 ppm ACC, 10) a mixture of 300 ppm OPC4 and 50 ppm ACC, 11) a mixture of 1,000 ppm OPC4 and 50 ppm ACC, 12) a mixture of 30 ppm OPC4 and 50 ppm jasmonic acid, 13) a mixture of 100 ppm OPC4 and 50 ppm jasmonic acid, 14) a mixture of 300 ppm OPC4 and 50 ppm jasmonic acid, 15) a mixture of 1,000 ppm OPC4 and 50 ppm jasmonic acid. 34 hours post spray application percent red pixel area (shaded) was measured. Percent red pixel area is an indication of the coloration of the apple fruit.
(§1) To determine if the mixture provided unexpected results, the observed combined efficacy (“OCE”) was divided by the expected combined efficacy (“ECE”) wherein the ECE is calculated by the Abbott method: […]
(§2) wherein ECE is the expected combined efficacy and in which A and B are the percent change from control given by the single active ingredients. If the ratio between the OCE of the mixture and the ECE of the mixture is greater than 1, then greater than expected interactions are present in the mixture. (Gisi, Synergistic Interaction of Fungicides in Mixtures, The American Phytopathological Society, 86:11, 1273-1279,1996).

Test [2] has the same test system. Description: Apple coloration in Pink Lady variety (Example 2), percent red pixel area after foliar spray. It counts as in vivo. The following applies: for Average % Red Pixel Area: 34 hours post spray; for % change from control: vs 0.05% Regulaid control. The protocol: as §1, §2
10 sets of unripened apples, Pink Lady variety, harvested three weeks before the normal harvest date, were each foliar sprayed with either 1) 0.05% Regulaid® as a control, 2) 10 ppm OPC4, 3) 100 ppm OPC4, 4) 100 ppm ACC, 5) 100 ppm jasmonic acid, 6) a mixture of 10 ppm OPC4 and 100 ppm ACC, 7) a mixture of 100 ppm OPC4 and 100 ppm ACC, 8) a mixture of 10 ppm OPC4 and 100 ppm jasmonic acid and 9) a mixture of 100 ppm OPC4 and 100 ppm jasmonic acid. 34 hours post spray application percent red pixel area (shaded) was measured. Percent red pixel area is an indication of the coloration of the apple fruit.

In the case of `NC1(C(=O)O)CC1` [ACC, 1-amino-1-cyclopropanecarboxylic acid, reference compound], in test [1] (50 ppm foliar spray), the “Average % Red Pixel Area” value turned out to be 9.33% and the “% change from control” value was determined as 0.23%. Besides, in test [2] (100 ppm foliar spray), the “Average % Red Pixel Area” value was determined as 19.32% and the “% change from control” value is −0.20%.
Consider `CCC=CCC1C(=O)CCC1CCCC(=O)O` (centres unmarked) [OPC4, 4-(3-oxo-2-(pent-2-enyl)cyclopentyl) butanoic acid], for which the “Average % Red Pixel Area” value in test [1] (30 ppm foliar spray) came to 13.37%; in test [1] (100 ppm foliar spray) it was 36.02%; in test [1] (300 ppm foliar spray), 65.59%; in test [1] (1000 ppm foliar spray) it was 54.35%; in test [2] (10 ppm foliar spray), 18.85%; in test [2] (100 ppm foliar spray) it was 43.59%. Besides, the “% change from control” value in test [1] (30 ppm foliar spray) is given as 0.76%; in test [1] (100 ppm foliar spray), 3.74%; in test [1] (300 ppm foliar spray) it was 7.63%; in test [1] (1000 ppm foliar spray), 6.15%; in test [2] (10 ppm foliar spray), −0.22%; in test [2] (100 ppm foliar spray) it was 0.80%.
On to `CC/C=C\C[C@H]1C(=O)CC[C@@H]1CC(=O)O` [JA, jasmonic acid, reference compound], for which the “Average % Red Pixel Area” value in test [1] (50 ppm foliar spray) was 39.64%; in test [2] (100 ppm foliar spray), 49.9%. Moreover, the “% change from control” value in test [1] (50 ppm foliar spray) is recorded as 4.22%; in test [2] (100 ppm foliar spray), 1.06%.
